Results reported in paper PMC13064039, “Exploring the binding interaction of rupatadine with bovine serum albumin using multi-spectroscopic and molecular modeling approaches” (BMC Chemistry, 2026).

How the values were obtained:
[1] = system: ovarian cancer cells (platelet-activating factor receptor); parameters: method as in PMID 34571986; settings: in vitro; targets the platelet-activating factor receptor; cited from earlier work
[2] = biological target: T1, bovine serum albumin (BSA) (Bos taurus, UniProt P02769); assay: FT-IR spectroscopy of BSA with and without RUPA; settings: BSA 2 µM + RUPA 40 µM, pH 7.4, 303 K; free BSA 1646
[3] = biological target: T1, bovine serum albumin (BSA); assay: Fluorescence quenching of BSA by RUPA (Stern-Volmer, modified Stern-Volmer, van't Hoff analysis); format: binding; settings: for Ksv (Stern-Volmer quenching constant): BSA 2 µM, RUPA 0-100 µM
Experimental: The fluorescence data were corrected for the inner filter effect (IFE) according to the Lakowicz method to ensure that the obtained binding parameters were not impacted by absorption artifacts.
To account for the possible influence of inner filter effects (IFE), the fluorescence intensities were corrected using the following formula (Eq. 1): 1
The process of fluorescence quenching was determined using the Stern-Volmer equation (Eq. 2): 2
The KSV and Kq values were determined by the graph of F0/F against [Q]
Stoichiometric analysis is used to define the various equilibria for a macromolecule’s binding of a ligand by binding sites (n). The number of binding sites (n) and the binding constant (Kb) were calculated using the modified Stern–Volmer equation (Eq. 3). 3
The thermodynamic characteristics of the binding reaction serve as the primary evidence for the binding force. Hydrogen bonds, hydrophobic forces, electrostatic interactions, van der Waals interactions, and other binding forces could all be present between small molecules and biomacromolecules. The temperature dependence of the binding constant was thus measured for this purpose at three distinct temperatures: 303, 310, and 318 K (Fig. 4).
The Gibbs–Helmholtz equation provided below was used to assess the free energy change (ΔG) value (Eq. 5).

[4] = biological target: T1, bovine serum albumin (BSA); assay: Competitive binding analysis using site probes (phenylbutazone site I, diazepam site II); settings: site marker competition
Experimental: Phenylbutazone and diazepam are the site probes for sites Ⅰ and Ⅱ, respectively. The BSA and site probe concentrations in this experiment were maintained at 2 µM and 10 µM, respectively. Rupatadine concentrations ranged from 10 to 100 µM. After excitation at 279 nm, fluorescence intensity measurements were made at 341 nm. At 303 K, measurements were made.

[5] = biological target: T1, bovine serum albumin (BSA); assay: Synchronous fluorescence of BSA with RUPA; format: binding; settings: RUPA 0-100 µM, BSA 2 µM, 303 K
Source text: Using synchronous fluorescence, the influence of the ligand on the protein has been thoroughly investigated. The distinctive details regarding the protein’s Tyr and Trp residues can be gained by fixing the scanning interval (∆λ) between the excitation and emission wavelengths at 15 and 60 nm, respectively.

[6] = parameters: method as in PMID 23160091; settings: cited from earlier work

T1 sequence (P02769 25-607): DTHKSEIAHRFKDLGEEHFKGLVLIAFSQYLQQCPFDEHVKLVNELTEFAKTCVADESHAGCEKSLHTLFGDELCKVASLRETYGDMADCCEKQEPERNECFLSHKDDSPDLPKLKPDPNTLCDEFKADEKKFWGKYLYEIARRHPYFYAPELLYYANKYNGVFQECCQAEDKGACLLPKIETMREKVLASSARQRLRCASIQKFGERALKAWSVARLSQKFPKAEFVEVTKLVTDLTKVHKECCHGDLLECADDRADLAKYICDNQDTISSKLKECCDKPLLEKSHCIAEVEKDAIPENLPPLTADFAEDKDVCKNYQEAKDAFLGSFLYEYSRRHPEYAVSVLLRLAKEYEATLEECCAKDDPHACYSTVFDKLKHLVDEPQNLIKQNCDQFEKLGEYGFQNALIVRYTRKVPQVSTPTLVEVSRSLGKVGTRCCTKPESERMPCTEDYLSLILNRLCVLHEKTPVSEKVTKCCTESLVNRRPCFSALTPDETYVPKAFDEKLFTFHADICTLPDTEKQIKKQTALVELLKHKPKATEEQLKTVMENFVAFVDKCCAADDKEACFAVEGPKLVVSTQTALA

- amide I peak location of BSA following the RUPA reaction [2]: 1642 cm^− 1
- n (number of binding sites) ([3]; 303 K): 0.57
- Ksv (Stern-Volmer quenching constant) ([3]; 303 K, pH 7.4): 1.07 × 10^4 L.mol^− 1
- n (number of binding sites) ([3]; 310 K): 0.83
- Ksv (Stern-Volmer quenching constant) ([3]; 310 K, pH 7.4): 0.82 × 10^4 L.mol^− 1
- Kq (quenching rate constant) ([3]; 310 K, τ0 = 10^-8 s): 0.82 × 10^12 L.mol^− 1.s^− 1
- n (number of binding sites) ([3]; 318 K): 1.06
- Ksv (Stern-Volmer quenching constant) ([3]; 318 K, pH 7.4): 0.48 × 10^4 L.mol^− 1
- ∆G^o (Gibbs free energy change) ([3]; pH 7.4, 303 K): -3.4823 kcal/mol
- ∆G^o (Gibbs free energy change) ([3]; pH 7.4, 318 K): -5.2287 kcal/mol
- ∆H^o (enthalpy change) ([3]; pH 7.4, van't Hoff, 303-318 K): 31.7935 kcal/mol
- ∆S^o (entropy change) ([3]; pH 7.4, van't Hoff, 303-318 K): 0.487 KJ mol^− 1 K^− 1
- enthalpy change (ΔH) ([3]; within the examined temperature range): 133.024 kJ mol^− 1
- binding site of RUPA on BSA [4]: site I
- shift in synchronous fluorescence ([5]; ∆λ = 15 nm (Tyr)): no shift
- red shift of ∆λmax in synchronous fluorescence ([5]; ∆λ = 60 nm (Trp)): about 2 nm
SMILES: Cc1cncc(CN2CCC(=C3c4ccc(Cl)cc4CCc4cccnc43)CC2)c1 [RUPA, 13-chloro-2-[1-[(5-methylpyridin-3-yl)methyl]piperidin-4-ylidene]−4-azatricyclo [9.4.0.03,8] pentadeca-1(11),3(8),4,6,12,14-hexaene]
- effect on ovarian cancer cell proliferation and migration [1]: prevent ovarian cancer cells from proliferating and migrating
- attached to plasma proteins [6]: approximately 99%
